Here are results for one molecule from US20050154052A1, “Novel crystalline forms of (s)-citalopram oxalate” (Hetero Drugs Limited, priority 2003, published 2005).

The structures appear in SMILES notation. Counter-ions that a name gives are not always drawn.

The nature of the data set: Solubility of (S)-citalopram oxalate in alcohol. It is filed as physicochemical. Particulars: 5 gm in 35 ml of methanol at 25° C. The source says:
According to another aspect of the present invention there is provided a process for preparation of the Form II of (S)-citalopram oxalate. Thus (S)-citalopram oxalate is mixed with an alcohol. (S)-Citalopram oxalate prepared by the process described in, for example, EP 0347066 or the Form I of (S)-citalopram oxalate may be used. The alcohol is either methanol or ethanol or isopropyl alcohol. The solubility of (S)-citalopram oxalate depends on the alcohol used and volume of the alcohol to (S)-citalopram oxalate. For example, 5 gm of (S)-citalopram oxalate is soluble in 35 ml of methanol at 25° C. If (S)-citalopram oxalate is soluble in the conditions of experiment, the Form II of (S)-citalopram oxalate is precipitated from the solution. The techniques such as cooling, partial removal of the solvent, addition of anti-solvent like diisopropyl ether may be used to precipitate the Form II of (S)-citalopram oxalate. If the (S)-citalopram oxalate is insoluble in the alcohol, after mixing (S)-citalopram oxalate and the alcohol the solid is filtered from the contents to obtain Form II of (S)-citalopram oxalate.

Take `CN(C)CCC[C@@]1(c2ccc(F)cc2)OCc2cc(C#N)ccc21` [(S)-citalopram oxalate, 1(S)-[3-(Dimethylamino)propyl]-1-(4-fluorophenyl)-1,3-dihydro-5-isobenzofurancarbonitrile]: the solubility in methanol entry was “soluble”.
